Laboratory results from patent US10344025B2, “GLS1 inhibitors for treating disease” (Board of Regents, The University of Texas System, priority 2014, dated 2019).

Experiments:
[1] = biological target: purified recombinant human GAC (GLS1) (Homo sapiens (Human), UniProt O94925); assay: GLS1 Enzymatic Activity Assay (dual-coupled enzymatic assay, resorufin/Amplex UltraRed readout); type: biochemical;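 note: glutamate from GAC coupled via glutamate oxidase and peroxidase to resorufin, read as fluorescence (ex 530, em 590 nm) kinetically or at 20 min, four-parameter logistic IC50 fit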
purified recombinant human GAC (GLS1), sequence (O94925 other isoform, or with tags, fused parts or gaps): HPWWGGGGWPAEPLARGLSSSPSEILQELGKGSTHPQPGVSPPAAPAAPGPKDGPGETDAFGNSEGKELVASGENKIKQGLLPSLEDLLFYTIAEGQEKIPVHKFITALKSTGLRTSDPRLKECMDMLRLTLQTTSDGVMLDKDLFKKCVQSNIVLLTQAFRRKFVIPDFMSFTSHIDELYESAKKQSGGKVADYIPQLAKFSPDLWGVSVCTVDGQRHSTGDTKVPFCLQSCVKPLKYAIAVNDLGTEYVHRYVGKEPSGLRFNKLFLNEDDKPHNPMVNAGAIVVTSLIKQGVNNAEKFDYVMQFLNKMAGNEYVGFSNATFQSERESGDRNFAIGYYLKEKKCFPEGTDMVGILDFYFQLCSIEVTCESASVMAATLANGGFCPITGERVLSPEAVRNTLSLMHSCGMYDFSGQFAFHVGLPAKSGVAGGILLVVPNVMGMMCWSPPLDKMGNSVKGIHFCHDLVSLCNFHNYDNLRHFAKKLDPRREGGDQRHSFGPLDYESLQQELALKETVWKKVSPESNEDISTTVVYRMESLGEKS

A549 cells = assay: Proliferation Assay (A549 viability, Cell Titer Fluor, 72 hours); type: cell-based; conditions: Homo sapiens, A549, 72 h
Procedure, shortened: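 A549 cells seeded at 1000 cells/well, rested 24 h, then exposed to compound in 0.5% DMSO for 72 h at 37 °C. Viability read by Cell Titer Fluor fluorescence; IC50 from four-parameter logistic fit.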

Row | SMILES | IC50 [1] | EC50 (A549 cells)
1 | O=C(Cc1cccc(OC(F)(F)F)c1)Nc1cn(CC(F)CCn2cc(C(=O)NCc3cccc(C(F)(F)F)n3)nn2)nn1 (centres unmarked) [Example 487, 1-[3-fluoro-4-(4-{2-[3-(trifluoromethoxy)phenyl]acetamido}-1H-1,2,3-triazol-1-yl)butyl]-N-{[6-(trifluoromethyl)pyridin-2-yl]methyl}-1H-1,2,3-triazole-4-carboxamide] | < 100 nM | < 100 nM
2 | Cc1ccc(CC(=O)Nc2cn(CCCCn3cc(C(=O)NCc4cc(OC(F)(F)F)ccc4F)nn3)nn2)cn1 [Example 335, N-{[2-fluoro-5-(trifluoromethoxy)phenyl]methyl}-1-(4-{4-[2-(6-methylpyridin-3-yl)acetamido]-1H-1,2,3-triazol-1-yl}butyl)-1H-1,2,3-triazole-4-carboxamide] | < 100 nM | < 100 nM
3 | CNC(=O)c1cn(C[C@H](F)CCc2ccc(NC(=O)Cc3cc(OC4CC(OCC(F)(F)F)C4)ccn3)nn2)nn1 (stereo partly drawn) [Example 269, (R)-1-(2-fluoro-4-(6-(2-(4-(3-(2,2,2-trifluoroethoxy)cyclobutoxy)pyridin-2-yl)acetamido)pyridazin-3-yl)butyl)-N-methyl-1H-1,2,3-triazole-4-carboxamide] | < 100 nM | < 100 nM
4 | CNC(=O)c1cn(CC(F)CCc2nnc(C(=O)NCc3cncc(C(F)(F)F)c3)s2)nn1 (centres unmarked) [Example 501, 5-{3-fluoro-4-[4-(methylcarbamoyl)-1H-1,2,3-triazol-1-yl]butyl}-N-{[- (trifluoromethyl)pyridin-3-yl]methyl}-1,3,4-thiadiazole-2-carboxamide] | 100 to 500 nM | 100 to 500 nM
5 | CNC(=O)c1cn(C[C@H](F)CCc2ccc(NC(=O)Cc3ccccc3)nn2)nn1 [Example 273, (R)-1-(2-fluoro-4-(6-(2-phenylacetamido)pyridazin-3-yl)butyl)-N-methyl-1H-1,2,3-triazole-4-carboxamide] | < 100 nM | < 100 nM
6 | O=C(NCc1cccc(OC(F)(F)F)c1)c1cn(CCC(F)Cn2cc(C(=O)NCc3ccc(C(F)(F)F)nc3)nn2)nn1 (centres unmarked) [Example 435, 1-{2-fluoro-4-[4-({[3-(trifluoromethoxy)phenyl]methyl}carbamoyl)-1H-1,2,3-triazol-1-yl]butyl}-N-{[6-(trifluoromethyl)pyridin-3-yl]methyl}-1H-1,2,3-triazole-4-carboxamide] | < 100 nM | < 100 nM
7 | CNC(=O)c1cn(CC(F)CCc2nnc(NC(=O)Cc3cc(C(F)(F)F)ccn3)s2)nn1 (centres unmarked) [Example 226, 1-(2-fluoro-4-(5-(2-(4-(trifluoromethyl)pyridin-2-yl)acetamido)-1,3,4-thiadiazol-2-yl)butyl)-N-methyl-1H-1,2,3-triazole-4-carboxamide] | < 100 nM | < 100 nM
8 | O=C(NCc1ccccc1F)c1cn(CCC(F)Cn2cc(C(=O)NCc3cc(C(F)(F)F)ccn3)nn2)nn1 (centres unmarked) [Example 454, 1-[2-fluoro-4-(4-{[(2-fluorophenyl)methyl]carbamoyl}-1H-1,2,3-triazol-1-yl)butyl]-N-{[4-(trifluoromethyl)pyridin-2-yl]methyl}-1H-1,2,3-triazole-4-carboxamide] | < 100 nM | 100 to 500 nM
9 | CNC(=O)c1cn(CC(F)CCc2ccc(NC(=O)Cc3cc(OC(F)F)ccn3)nn2)nn1 (centres unmarked) [Example 274, 1-(4-(6-(2-(4-(difluoromethoxy)pyridin-2-yl)acetamido)pyridazin-3-yl)-2-fluorobutyl)-N-methyl-1H-1,2,3-triazole-4-carboxamide] | < 100 nM | < 100 nM
10 | CNC(=O)c1cn(CC(F)CCc2nnc(NC(=O)Cc3cncc(-c4cccc(OC(F)(F)F)c4)c3)s2)nn1 (centres unmarked) [Example 195, 1-(2-fluoro-4-(5-(2-(5-(3-(trifluoromethoxy)phenyl)pyridin-3-yl)acetamido)-1,3,4-thiadiazol-2-yl)butyl)-N-methyl-1H-1,2,3-triazole-4-carboxamide] | < 100 nM | < 100 nM
11 | COc1cccc(CNC(=O)c2cn(CCCCn3cc(C(=O)NCc4cc(C(F)(F)F)ccn4)nn3)nn2)c1 [Example 108, 1-[4-(4-{[(3-methoxyphenyl)methyl]carbamoyl}-1H-1,2,3-triazol-1-yl)butyl]-N-{[4-(trifluoromethyl)pyridin-2-yl]methyl}-1H-1,2,3-triazole-4-carboxamide] | < 100 nM | 100 to 500 nM
12 | O=C(NCc1cccc(OC(F)(F)F)c1)c1cn(CCCCc2nnc(C(=O)NCc3ccc(C(F)(F)F)cn3)s2)nn1 [Example 77, 5-{4-[4-({[3-(trifluoromethoxy)phenyl]methyl}carbamoyl)-1H-1,2,3-triazol-1-yl]butyl}-N-{[5-(trifluoromethyl)pyridin-2-yl]methyl}-1,3,4-thiadiazole-2-carboxamide] | < 100 nM | < 100 nM
13 | O=C(NCc1cncc(C(F)(F)F)c1)c1cn(CCCCn2cc(C(=O)NCC3CCCC3)nn2)nn1 [Example 84] | 100 to 500 nM | 100 to 500 nM
14 | O=C(NCc1cccc(C2CC2)c1)c1cn(CCCCn2cc(C(=O)NCc3cc(C4CC4)ccn3)nn2)nn1 [Example 128, N-[(3-cyclopropylphenyl)methyl]-1-[4-(4-{[(4-cyclopropylpyridin-2-yl)methyl]carbamoyl}-1H-1,2,3-triazol-1-yl)butyl]-1H-1,2,3-triazole-4-carboxamide] | < 100 nM | < 100 nM
15 | O=C(NCc1cccc(OC(F)(F)F)c1)c1cn(CCCCc2nnc(C(=O)NCC3CC3)s2)nn1 [Example 59, N-(cyclopropylmethyl)-5-{4-[4-({[3-(trifluoromethoxy)phenyl]methyl}carbamoyl)-1H-1,2,3-triazol-1-yl]butyl}-1,3,4-thiadiazole-2-carboxamide] | 100 to 500 nM | 500 to 5000 nM
16 | O=C(NCc1cc(OC(F)(F)F)ccc1F)c1cn(CCC(F)Cn2cc(C(=O)N[C@H](CO)c3ccccc3)nn2)nn1 (stereo partly drawn) [Example 452, 1-{2-fluoro-4-[4-({[2-fluoro-5-(trifluoromethoxy)phenyl]methyl}carbamoyl)-1H-1,2,3-triazol-1-yl]butyl}-N-[(1S)-2-hydroxy-1-phenylethyl]-1H-1,2,3-triazole-4-carboxamide] | < 100 nM | 100 to 500 nM
17 | CC(=O)Nc1ccc(CCCCc2nnc(C(=O)NCc3cc(OC(F)(F)F)ccc3F)s2)nn1 [Example 600, 5-(4-(6-acetamidopyridazin-3-yl)butyl)-N-(2-fluoro-5-(trifluoromethoxy)benzyl)-1,3,4-thiadiazole-2-carboxamide] | < 100 nM | < 100 nM
18 | O=C(Cc1cc(OC(F)(F)F)ccc1F)Nc1cn(CC(F)CCn2cc(C(=O)NCc3cccc(OC(F)(F)F)c3)nn2)nn1 (centres unmarked) [Example 379, 1-[3-fluoro-4-(4-{2-[2-fluoro-5-(trifluoromethoxy)phenyl]acetamido}-1H-1,2,3-triazol-1-yl)butyl]-N-{[3-(trifluoromethoxy)phenyl]methyl}-1H-1,2,3-triazole-4-carboxamide] | < 100 nM | < 100 nM
19 | O=C(CC1CCCC1)Nc1cn(CCCCn2cc(C(=O)NCC3CCCC3)nn2)nn1 [Example 288, 1-{4-[4-(2-cyclopentylacetamido)-1H-1,2,3-triazol-1-yl]butyl}-N-(cyclopentylmethyl)-1H-1,2,3-triazole-4-carboxamide] | 100 to 500 nM | 500 to 5000 nM
